# Legend:
# L929 fibroblasts = assay: Annexin V/PI apoptosis, normal cell line; assay type: cell-based; conditions: L929 fibroblasts cultured under attached conditions
# A549 CSC = conditions: stated as known; cited from earlier work
substance,measurement,setting,value
ceramide [free ceramide],apoptosis in normal cells,L929 fibroblasts,neither free ceramide nor G5C3 cause significant apoptosis
same,resistance of A549 CSC,A549 CSC,resistant to free ceramide
